Tests used:
[1] = UV absorption (UV-VIS spectra in 2-propanol, 1 mg/100 ml); format: physicochemical; parameters: UV absorbance at λmax (1 mg/100 ml): unit not given here; details: for UVB (280-320 nm) max. abs / UVB max. at λ [nm] / UVA (400-320 nm) max. abs / UVA max. at λ [nm]: solvent 2-Propanol, c 1 mg/100 ml; for UV-VIS λmax / UV absorbance at λmax (1 mg/100 ml): 1 mg/100 ml; for UV absorbance at λmax (1 mg/100 ml): value in brackets after λmax in the synthesis example
Method: FIG. 1: UV absorption spectra of 1-hydroxy-3-[(E)-3-(4-methoxyphenyl)-2-propenoyloxy]-2-oxopropane (Example 1a) and 1-hydroxy-3-(2-cyano-3,3-diphenylacryloyloxy)-2-oxopropane (Example 1b) (in each case measured in 2-propanol at a concentration of 1 mg/100 ml)
FIG. 2: UV absorption spectra of 3-[4-(3-hydroxy-2-oxopropoxymethyl)benzylidene]-4,7,7-trimethylbicyclo[2.2.1]heptan-2-one (Example 9), N-(2,3-dihydroxypropyl)-(E)-3-(4-methoxyphenyl)acrylamide (Example 10a) and N-(2,3-dihydroxypropyl)-N-methyl-(E)-3-(4-methoxyphenyl)acrylamide (Example 10b) (in each case measured in 2-propanol at a concentration of 1 mg/100 ml).

Structure (SMILES) | UVB (280-320 nm) max. abs [1] | UVB max. at λ [nm] [1] | UV-VIS λmax [1] | UV absorbance at λmax (1 mg/100 ml) [1] | other results
N#CC(C(=O)OCC(=O)CO)=C(c1ccccc1)c1ccccc1 [drawing 77, 1-Hydroxy-3-(2-cyano-3,3-diphenylacryloyloxy)-2-oxopropane] | 0.375 | 303.0 nm |  |  | 
COc1ccc(/C=C/C(=O)NCC(=O)CO[Si](C)(C)C(C)(C)C)cc1 [Example 17, N-[3-(tert-butyldimethylsilyloxy)-2-oxopropyl]-(E)-3-(4-methoxyphenyl)acrylamide] |  |  | 300.0 nm | 0.843 | melting point: 151 to 152 °C
COc1ccc(/C=C/C(=O)NCC(O)CO[Si](C)(C)C(C)(C)C)cc1 (stereo not drawn) [drawing 93] | 0.694 | 289 nm |  |  | 
COc1ccc(/C=C/C(=O)NCC(O)CO)cc1 (stereo not drawn) [drawing 75] | 0.936 | 292.00 nm |  |  | 
COc1ccc(/C=C/C(=O)OCC(=O)COC(=O)/C=C/c2ccc(OC)cc2)cc1 [Example 23, 1,3-Bis-[(E)-3-(4-methoxyphenyl)-2-propenoyloxy]-2-oxopropane] |  |  | 307.0 nm | 1.140 | melting point: 146 to 148 °C
CN(C)c1ccc(C(=O)NCC(O)CO)cc1 (stereo not drawn) [drawing 82] | 0.947 | 301.0 nm |  |  | 
CC12CCC(C(=O)/C1=C\c1ccc(CNCC(O)CO)cc1)C2(C)C (stereo not drawn) | 0.692 | 298.0 nm |  |  | 
CN(C)c1ccc(C(=O)NCC(=O)CO)cc1 [drawing 85, N-(3-hydroxy-2-oxopropyl)-4-dimethylaminobenzamide] | 0.575 | 298.0 nm |  |  | 
CN(C)c1ccc(C(=O)NCC(O)CO[Si](C)(C)C(C)(C)C)cc1 (stereo not drawn) [Example 15, N-[3-(tert-butyldimethylsilyloxy)-2-hydroxypropyl]-4-dimethylaminobenzamide] |  |  | 301.0 nm | 0.64 | melting point: 127 to 128 °C
CN(C)c1ccc(C(=O)OCC(=O)CO)cc1 [Example 3, 3-Hydroxy-2-oxopropyl 4-dimethylaminobenzoate] |  |  | 311.0 nm | 1.213 | melting point: 129 to 131 °C
CCCCC(CC)COc1ccc(/C=C/C(=O)NCC(O)CO)cc1 (stereo not drawn) [Example 10c, N-(2,3-dihydroxypropyl)-(E)-[4-(2-ethylhexyloxyphenyl)]acrylamide] |  |  | 307.0 nm | 0.688 | 
CN(C)c1ccc(C(=O)OCC(=O)CO)cc1 [drawing 83, 3-Hydroxy-2-oxopropyl 4-dimethylaminobenzoate] | 1.213 | 311.0 nm |  |  | 
CCCCC(CC)COc1ccc(/C=C/C(=O)NCC(O)CO)cc1 (stereo not drawn) [drawing 89, N-(2,3-dihydroxypropyl)-(E)-[4-(2-ethylhexyloxyphenyl)]acrylamide] | 0.688 | 307.0 nm |  |  | 
CN(Cc1ccc(/C=C2\C(=O)C3CCC2(C)C3(C)C)cc1)CC(O)CO[Si](C)(C)C(C)(C)C (stereo not drawn) [3-[4-({[3-(tert-butyldimethylsilyloxy)-2-hydroxypropyl]-methylamino}methyl)benzylidene]-4,7,7-trimethylbicyclo[2.2.1]heptan-2-one] | 0.545 | 297 nm |  |  | 
COc1ccc(/C=C/C(=O)N(C)CC(O)CO)cc1 (stereo not drawn) [drawing 96] | 0.715 | 292 nm |  |  | 
CN(Cc1ccc(/C=C2\C(=O)C3CCC2(C)C3(C)C)cc1)CC(O)CO (stereo not drawn) [3-(4-{[(2,3-Dihydroxypropyl)methylamino]methyl}benzylidene)-4,7,7-trimethylbicyclo[2.2.1]heptan-2-one] | 0.711 | 296 nm |  |  | 
COc1ccc(/C=C/C(=O)OCC2COC(C)(C)O2)cc1 (stereo not drawn) | 0.796 | 306.0 nm |  |  | 
CCCCC(CC)COc1ccc(/C=C/C(=O)NCC(=O)CO)cc1 (stereo not drawn) [Example 21, N-(3-hydroxy-2-oxopropyl)-(E)-3-[4-(2-ethylhexyloxyphenyl)]acrylamide] |  |  | 307.5 nm | 0.706 | melting point: 155 to 157 °C
COc1ccc(/C=C/C(=O)OCC(O)CO)cc1 (stereo not drawn) | 0.881 | 302.0 nm |  |  | 
COc1ccc(/C=C/C(=O)NCC(O)CO)cc1 (stereo not drawn) [drawing 94] | 0.914 | 289 nm |  |  | 

Structure (SMILES) | UVB (280-320 nm) max. abs [1] | UVB max. at λ [nm] [1] | UV-VIS λmax [1] | UV absorbance at λmax (1 mg/100 ml) [1] | other results
COc1ccc(/C=C/C(=O)OCC(=O)COC(=O)/C=C/c2ccc(OC)cc2)cc1 [drawing 73] | 0.107 | 300.67 nm |  |  | 
COc1ccc(/C=C/C(=O)NCC(=O)CO)cc1 [Example 20, N-(3-hydroxy-2-oxopropyl)-(E)-3-(4-methoxyphenyl)acrylamide] |  |  | 294.0 nm | 0.941 | melting point: 160 to 162 °C
COc1ccc(/C=C/C(=O)OCC(=O)CO)cc1 [Example 1a, 1-Hydroxy-3-[(E)-3-(4-methoxyphenyl)-2-propenoyloxy]-2-oxopropane] |  |  | 301.0 nm | 0.947 | melting point: 172 to 174 °C
CN(C)c1ccc(C(=O)NCC(=O)CO[Si](C)(C)C(C)(C)C)cc1 [drawing 86, N-[3-(tert-butyldimethylsilyloxy)-2-oxopropyl]-4-dimethylaminobenzamide] | 0.713 | 312.0 nm |  |  | 
CCCCC(CC)COc1ccc(/C=C/C(=O)OCC(=O)COC(=O)/C=C/c2ccc(OCC(CC)CCCC)cc2)cc1 (stereo not drawn) [Example 23a] |  |  | 301.0 nm | 0.947 | melting point: 77 to 79 °C
CN(C)c1ccc(C(=O)NCC(=O)CO[Si](C)(C)C(C)(C)C)cc1 [Example 19, N-[3-(tert-butyldimethylsilyloxy)-2-oxopropyl]-4-dimethylaminobenzamide] |  |  | 312.0 nm | 0.713 | 
COC(CO)(COCc1ccc(/C=C2\C(=O)C3CCC2(C)C3(C)C)cc1)OC (stereo not drawn) [3-[4-(3-hydroxy-2,2-dimethoxypropoxymethyl)benzylidene]-4,7,7-trimethylbicyclo[2.2.1]heptan-2-one] | 0.615 | 298.0 nm |  |  | 
COc1ccc(/C=C/C(=O)NCC(=O)CO)cc1 [drawing 81, N-(3-hydroxy-2-oxopropyl)-(E)-3-(4-methoxyphenyl)acrylamide] | 0.941 | 294.0 nm |  |  | 
CN(C)c1ccc(C(=O)NCC(O)CO[Si](C)(C)C(C)(C)C)cc1 (stereo not drawn) [drawing 84, N-[3-(tert-butyldimethylsilyloxy)-2-hydroxypropyl]-4-dimethylaminobenzamide] | 0.64 | 301.0 nm |  |  | 
CN(C)c1ccc(C(=O)OCC(O)CO)cc1 (stereo not drawn) [Example 5, 2,3-Dihydroxypropyl 4-dimethylaminobenzoate] |  |  | 310.0 nm | 1.01 | 
CC1(C)OCC(COc2ccc(C(=O)c3ccccc3)c(O)c2)O1 (stereo not drawn) | 0.473 | 286.1 nm |  |  | UVA (400-320 nm) max. abs [1]: 0.312; UVA max. at λ [nm] [1]: 328.3 nm
N#CC(C(=O)OCC(=O)COC(=O)C(C#N)=C(c1ccccc1)c1ccccc1)=C(c1ccccc1)c1ccccc1 [drawing 78, 1,3-Bis-(2-cyano-3,3-diphenylacryloyloxy)-2-oxopropane] | 0.031 | 304.0 nm |  |  | 
COc1ccc(/C=C/C(=O)N(C)CC(O)CO)cc1 (stereo not drawn) [Example 10b, N-(2,3-dihydroxypropyl)-N-methyl-(E)-3-(4-methoxyphenyl)acrylamide] |  |  | 301.0 nm | 0.934 | melting point: 81 to 83 °C
CN(C)c1ccc(C(=O)OCC(O)CO[Si](C)(C)C(C)(C)C)cc1 (stereo not drawn) [Example 6, 3-(tert-Butyldimethylsilyloxy)-2-hydroxypropyl 4-dimethylaminobenzoate] |  |  | 310.0 nm | 1.01 | 
COc1ccc(/C=C/C(=O)OCC(=O)CO)cc1 [drawing 74] | 0.893 | 311.33 nm |  |  | 
CN(C)c1ccc(C(=O)NCC(=O)CO)cc1 [Example 22, N-(3-hydroxy-2-oxopropyl)-4-dimethylaminobenzamide] |  |  | 298.0 nm | 0.575 | 
CC12CCC(C(=O)/C1=C\c1ccc(COCC(=O)CO)cc1)C2(C)C (stereo not drawn) [3-[4-(3-hydroxy-2-oxopropoxymethyl)benzylidene]-4,7,7-trimethylbicyclo[2.2.1]heptan-2-one] | 0.874 | 296 nm |  |  | 
CCCCC(CC)COc1ccc(/C=C/C(=O)NCC(=O)CO)cc1 (stereo not drawn) [drawing 90, N-(3-hydroxy-2-oxopropyl)-(E)-3-[4-(2-ethylhexyloxyphenyl)]acrylamide] | 0.706 | 307.5 nm |  |  | 
CN(C)c1ccc(C(=O)OCC2COC(C)(C)O2)cc1 (stereo not drawn) [Example 4, 4-(4-Dimethylaminophenylcarbonyloxymethyl)-2,2-dimethyl-1,3-dioxolane] |  |  | 310.0 nm | 0.86 | 
O=C(c1ccccc1)c1ccc(OCC(O)CO)cc1O (stereo not drawn) | 0.537 | 287.9 nm |  |  | UVA (400-320 nm) max. abs [1]: 0.363; UVA max. at λ [nm] [1]: 327.5 nm
